Experimental data from patent US6897212B2, “Treatment of oppositional defiant disorder and conduct disorder with 5-aminoalkyl-4,5,6,7-tetrahydro-4-oxyindolones” (Afecta Pharmaceuticals, priority 2002, dated 2005).
Like-named read-outs stand apart in the source and are kept apart here.

Legend:
[1] = tested on: patients with refractory depression; settings: 19 patients with refractory depression; molindone 10-30 mg/day; cited from earlier work
[2] = molecular target: T1, Serotonin 2A receptor (Homo sapiens, UniProt P28223); assay: binding affinity to Serotonin 2A receptor in cell membrane homogenates; settings: for Ki: cell membrane homogenates, read-out: pKi 5-HT2A (converted); for pKi ratio 5-HT2A/D2: ratio of Serotonin 2A binding to Dopamine 2 binding
T1 construct: membrane homogenates
T1 sequence (P28223 whole entry): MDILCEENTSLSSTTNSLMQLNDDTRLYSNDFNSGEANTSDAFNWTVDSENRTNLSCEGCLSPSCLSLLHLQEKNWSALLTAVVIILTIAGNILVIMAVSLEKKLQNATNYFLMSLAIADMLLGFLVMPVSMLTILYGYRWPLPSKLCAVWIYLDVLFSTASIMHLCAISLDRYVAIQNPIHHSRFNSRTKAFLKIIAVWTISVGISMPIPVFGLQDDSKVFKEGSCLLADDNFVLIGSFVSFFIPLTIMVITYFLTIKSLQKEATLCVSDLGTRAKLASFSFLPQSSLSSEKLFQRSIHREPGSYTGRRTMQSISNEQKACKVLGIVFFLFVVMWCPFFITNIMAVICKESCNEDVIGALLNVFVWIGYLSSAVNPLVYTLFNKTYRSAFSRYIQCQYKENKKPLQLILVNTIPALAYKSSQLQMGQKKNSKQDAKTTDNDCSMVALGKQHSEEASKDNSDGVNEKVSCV
Text: The formulae of the compounds are [drawing 6]
Here, the pKi value is a measure for the binding affinity of the test compounds to the receptors present in cell membrane homogenates. D1 refers to the Dopamine 1 receptor, D2 refers to the Dopamine 2 receptor, and 5-HT2A refers to the Serotonin 2A receptor, while the pKi ratio presents the ratio of Serotonin 2A binding to Dopamine 2 binding.

[3] = molecular target: Dopamine 2 receptor (Homo sapiens, UniProt P14416); assay: binding affinity to Dopamine 2 receptor in cell membrane homogenates
Chain of Dopamine 2 receptor (P14416 whole entry): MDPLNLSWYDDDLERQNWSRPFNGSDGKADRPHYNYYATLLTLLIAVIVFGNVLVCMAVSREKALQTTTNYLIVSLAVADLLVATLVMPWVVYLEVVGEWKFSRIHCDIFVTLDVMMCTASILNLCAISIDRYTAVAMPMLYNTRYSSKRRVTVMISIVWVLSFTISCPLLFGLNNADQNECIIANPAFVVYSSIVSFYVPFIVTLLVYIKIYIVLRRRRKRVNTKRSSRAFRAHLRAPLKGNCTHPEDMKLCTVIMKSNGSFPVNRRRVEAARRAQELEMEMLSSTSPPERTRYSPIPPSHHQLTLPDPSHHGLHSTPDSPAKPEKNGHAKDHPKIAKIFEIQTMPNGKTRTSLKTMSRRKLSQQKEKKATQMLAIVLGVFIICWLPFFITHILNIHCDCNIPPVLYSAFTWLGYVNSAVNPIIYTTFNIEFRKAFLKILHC

[4] = molecular target: 5-HT2A (Homo sapiens, UniProt P28223); assay: in vitro activity (pA2) on cells expressing serotonine receptors
Chain of 5-HT2A (P28223 whole entry, species assumed): as the sequence (P28223 whole entry) above

[5] = molecular target: Dopamine 1 receptor (Homo sapiens, UniProt P21728); assay: binding affinity to Dopamine 1 receptor in cell membrane homogenates
Chain of Dopamine 1 receptor (P21728 whole entry): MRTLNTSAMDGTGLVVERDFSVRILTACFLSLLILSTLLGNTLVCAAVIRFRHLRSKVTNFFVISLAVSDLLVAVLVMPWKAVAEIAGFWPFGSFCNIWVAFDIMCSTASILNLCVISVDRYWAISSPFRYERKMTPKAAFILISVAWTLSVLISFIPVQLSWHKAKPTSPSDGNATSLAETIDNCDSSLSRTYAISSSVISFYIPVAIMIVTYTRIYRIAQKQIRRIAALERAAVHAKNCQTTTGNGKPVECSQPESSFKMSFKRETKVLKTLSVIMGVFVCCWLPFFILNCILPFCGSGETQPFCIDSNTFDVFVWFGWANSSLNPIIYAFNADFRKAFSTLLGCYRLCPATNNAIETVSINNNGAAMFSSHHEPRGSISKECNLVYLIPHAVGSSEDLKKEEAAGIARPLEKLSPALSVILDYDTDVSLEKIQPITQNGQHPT

[6] = human, in vivo
[7] = cited from earlier work
[8] = tested on: monoamine oxidase; settings: in vitro and in vivo; cited from earlier work
[9] = tested on: children with undersocialized conduct disorder, aggressive type; settings: cited from earlier work; for behavior ratings: double-blind study, 31 children, ages 6-11 years (Greenhill et al., 1985)
[10] = tested on: patients with ODD; assay: treatment of patients with oppositional defiant disorder and conduct disorder; format: in vivo, human
Text: The side effect is totally unacceptable to teenagers.
Case histories are set out in the following examples, which are offered by way of illustration and are not intended to limit the invention in any manner.

[11] = cited from earlier work; remark: listed apart in the source
[12] = weight gain in treated patients

Question: With `N[C@@H]1C[C@H]1c1ccccc1` (racemic) [tranylcypromine] as the compound, how does the “patients showing definite improvement” value [1] read?
Answer: two

Question: For `CCc1c(C)[nH]c2c1C(=O)C(CCN1CCOCC1)CC2` (stereo not drawn) [Compound 1], which Ki [2] is on record?
Answer: 912 nM

Question: What about the “pKi ratio 5-HT2A/D2” value [2] of the same compound?
Answer: 0.97

Question: And the Ki [3]?
Answer: 589 nM

Question: And the Kb [4]?
Answer: 105 nM

Question: And the Ki [5]?
Answer: 2140 nM

Question: For `CCc1c(C)[nH]c2c1C(=O)C(CCN1CCN(c3ccccc3OC)CC1)CC2` (stereo not drawn) [Compound 2], which Ki [2] is on record?
Answer: 91.2 nM

Question: What about the “pKi ratio 5-HT2A/D2” value [2] of the same compound?
Answer: 0.97

Question: And the Ki [3]?
Answer: 28.2 nM

Question: What about the Kb [4] of the same compound?
Answer: 31.6 nM

Question: With `CCc1c(C)[nH]c2c1C(=O)C(CN1CCOCC1)CC2` (stereo not drawn) [Molindone, 3-ethyl-6,7-dihydro-2-methyl-5-(morpholinomethyl)indol-4-(5H)-one] as the compound, how does the weight gain [6] read?
Answer: rarely, if ever, causes weight gain

Question: What about the “patients showing definite improvement” value [1] of the same compound?
Answer: Five of the 10 patients

Question: What about the prolongation of half-life ([7]; concomitant lithium therapy) of the same compound?
Answer: at least fourfold

Question: What about the elimination half-life ([7]; humans) of the same compound?
Answer: approximately 2 hours

Question: What about the “inhibition of monoamine oxidase” value [8] of the same compound?
Answer: inhibits the enzyme monoamine oxidase in vitro and in vivo

Question: And the behavior ratings [9]?
Answer: improvement in behavior ratings

Question: And the “aggressive behavior and Nurses' Global Assessment Scale” value ([9]; open trial, six patients, ages 6-11 years (Greenhill et al., 1981))?
Answer: some improvement

Question: What about the “effect on tantrums, hitting, rages and swearing” value ([10]; Example 1, patient three, ¼ of a 5 mg tablet every 4 hours) of the same compound?
Answer: immediate cessation of the tantrums, hitting and rages and less swearing

Question: And the “effect of raised dose” value ([10]; Example 1, patient three, ½ of a 5 mg tablet every 4 hours after three months)?
Answer: more effective

Question: What about the “effect on tantrums and aggressive behaviors” value ([10]; Example 2, patient two, 2.5 mg every 4 hours) of the same compound?
Answer: the tantrums and aggressive behaviors disappeared

Question: What about the persistence of effect ([10]; Example 2, patient two, after 6 months of use) of the same compound?
Answer: still effective

Question: What about the “effect on behavior after molindone was again initiated” value ([10]; Example 3, patient one) of the same compound?
Answer: immediate and dramatic improvement in the behavior

Question: What about the “effect on oppositional behavior” value ([10]; Example 3, patient one, molindone 10 mg bid) of the same compound?
Answer: dramatic decrease in oppositional behavior

Question: What about the “treatment of ODD” value ([10]; more than 50 patients with ODD, usual dose 1.25 to 10 mg every 4 hours) of the same compound?
Answer: successfully treated

Question: Which “fraction in plasma not bound to protein” value [11] does the source give for `CN(C)CCCN1c2ccccc2Sc2ccc(Cl)cc21` [chlorpromazine] here?
Answer: 0.13%

Question: For `O=C(CCCN1CCC(O)(c2ccc(Cl)cc2)CC1)c1ccc(F)cc1` [haloperidol], which “fraction in plasma not bound to protein” value [11] is on record?
Answer: 9%

Question: For `Cc1cc2c(s1)Nc1ccccc1N=C2N1CCN(C)CC1` [olanzapine], which weight gain ([12]; Example 3, patient one) is on record?
Answer: significant weight gain

Question: And the weight gain ([12]; patients, especially children)?
Answer: unacceptable level of weight gain, sometimes approaching a pound a day

Question: For `Cc1nc2n(c(=O)c1CCN1CCC(c3noc4cc(F)ccc34)CC1)CCCC2` [risperidone], which weight gain ([12]; Example 3, patient one) is on record?
Answer: significant weight gain

Question: What about the weight gain ([12]; patients, especially children) of the same compound?
Answer: unacceptable level of weight gain, sometimes approaching a pound a day

Question: What about the “effect on oppositional behavior” value ([10]; Example 3, patient one, used instead of molindone) of the same compound?
Answer: significant improvement in the oppositional behavior

Question: And the “treatment of ODD” value ([10]; unpublished observations)?
Answer: capable of effectively treating ODD

Question: With `CSc1ccc2c(c1)N(CCC1CCCCN1C)c1ccccc1S2` (stereo not drawn) [thioridazine] as the compound, how does the behavior ratings [9] read?
Answer: improvement in behavior ratings
